# Results from PubChem BioAssay AID1061 (NMMLSC, 2008).
# Calls of active or inactive are those of the source. The rule behind the calls is not given here.
# Target: N-formyl peptide receptor 2 (Homo sapiens) (UniProt P25090)
# Experiment: FPR2 antagonism measured by calcium flux – cell-based, calcium response, secondary assay, SAR follow-up (AID 1061)
# Conditions: FPRL1-expressing cells, antagonist mode, at 100 µM, stronger effect = higher value
# Chain of N-formyl peptide receptor 2 (Homo sapiens) (P25090 whole entry, looked up): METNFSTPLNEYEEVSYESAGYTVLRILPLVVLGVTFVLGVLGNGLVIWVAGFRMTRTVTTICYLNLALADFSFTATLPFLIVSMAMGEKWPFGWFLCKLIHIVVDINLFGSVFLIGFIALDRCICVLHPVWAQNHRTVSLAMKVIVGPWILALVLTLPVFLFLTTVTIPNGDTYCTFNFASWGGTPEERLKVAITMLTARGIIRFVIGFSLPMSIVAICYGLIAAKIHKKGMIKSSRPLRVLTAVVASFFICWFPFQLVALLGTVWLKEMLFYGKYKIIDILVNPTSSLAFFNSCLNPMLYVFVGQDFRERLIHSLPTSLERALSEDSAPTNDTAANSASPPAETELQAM
row,Compound,inhibition
1,CCC(=O)Nc1cc(-c2cn3cccnc3n2)ccc1OC,36% (inactive)
2,COc1ccc(CC(=O)Nc2cc(-c3cn4cccnc4n3)ccc2OC)cc1,75%
3,COc1ccc(-c2cc(C(F)(F)F)nc(N3CCN(Cc4ccccc4)CC3)n2)cc1OC,48% (inactive)
4,COc1ccc(-c2cn3cccnc3n2)cc1NC(=O)C1CC1,79%
5,COc1ccc(-c2cn3cccnc3n2)cc1NC(=O)C(C)C,93%
